Patent publication EP3623369A1, “NOVEL MORPHOLINYL AMINE COMPOUNDS FOR THE TREATMENT OF AUTOIMMUNE DISEASE” (F. Hoffmann-La Roche AG, priority 2018, dated 2020)

Target: T1, hTLR7 (Homo sapiens, UniProt Q9NYK1)
T1 sequence (Q9NYK1 27-1049): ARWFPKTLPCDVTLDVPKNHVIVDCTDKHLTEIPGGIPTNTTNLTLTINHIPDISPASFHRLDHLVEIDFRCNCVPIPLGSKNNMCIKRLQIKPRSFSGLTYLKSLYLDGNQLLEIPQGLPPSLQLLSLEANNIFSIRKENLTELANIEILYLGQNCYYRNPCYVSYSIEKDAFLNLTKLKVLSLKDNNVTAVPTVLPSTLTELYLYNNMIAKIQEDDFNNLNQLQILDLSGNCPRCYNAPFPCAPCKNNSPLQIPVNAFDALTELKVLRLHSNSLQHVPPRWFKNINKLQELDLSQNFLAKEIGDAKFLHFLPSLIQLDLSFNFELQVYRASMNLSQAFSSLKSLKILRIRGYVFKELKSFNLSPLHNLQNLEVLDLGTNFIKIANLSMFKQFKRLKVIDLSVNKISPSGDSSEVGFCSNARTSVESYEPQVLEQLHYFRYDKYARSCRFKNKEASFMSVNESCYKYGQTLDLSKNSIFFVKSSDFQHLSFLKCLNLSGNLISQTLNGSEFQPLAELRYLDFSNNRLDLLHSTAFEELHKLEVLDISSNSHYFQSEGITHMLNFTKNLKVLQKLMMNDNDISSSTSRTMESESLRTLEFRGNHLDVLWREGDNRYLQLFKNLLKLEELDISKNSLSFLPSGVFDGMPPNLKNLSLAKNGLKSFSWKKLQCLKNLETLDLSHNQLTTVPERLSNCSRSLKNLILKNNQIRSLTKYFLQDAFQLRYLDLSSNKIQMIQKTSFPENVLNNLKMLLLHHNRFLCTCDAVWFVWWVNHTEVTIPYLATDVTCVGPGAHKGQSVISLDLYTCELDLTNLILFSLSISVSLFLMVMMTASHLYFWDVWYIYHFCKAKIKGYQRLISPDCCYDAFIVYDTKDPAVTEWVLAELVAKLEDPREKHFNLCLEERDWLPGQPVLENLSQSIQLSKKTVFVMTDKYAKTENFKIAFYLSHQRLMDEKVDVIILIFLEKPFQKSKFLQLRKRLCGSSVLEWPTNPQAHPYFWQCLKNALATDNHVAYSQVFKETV
Assay: HEK293-Blue-hTLR-7 cells assay (SEAP reporter, R848 stimulation)
Type: cell-based
Details: HEK293-Blue-hTLR7 cells, R848, 20 hrs; 0.003 is the lowest tested concentration; read-out: HEK/hTLR7 IC50
Experimental: The following tests were carried out in order to determine the activity of the compounds of formula (I) or (Ia) in HEK293-Blue-hTLR-7/8/9 cells assay.
HEK293-Blue-hTLR-7 cells assay:
A stable HEK293-Blue-hTLR-7 cell line was purchased from InvivoGen (Cat.#: hkb-htlr7, San Diego, California, USA). These cells were originally designed for studying the stimulation of human TLR7 by monitoring the activation of NF-κB. A SEAP (secreted embryonic alkaline phosphatase) reporter gene was placed under the control of the IFN-β minimal promoter fused to five NF-κB and AP-1-binding sites. The SEAP was induced by activating NF-κB and AP-1 via stimulating HEK-Blue hTLR7 cells with TLR7 ligands. Therefore the reporter expression was declined by TLR7 antagonist under the stimulation of a ligand, such as R848 (Resiquimod), for incubation of 20 hrs. The cell culture supernatant SEAP reporter activity was determined using QUANTI-Blue™ kit (Cat.#: rep-qb1, Invivogen, San Diego, Ca, USA) at a wavelength of 640 nm, a detection medium that turns purple or blue in the presence of alkaline phosphatase.
HEK293-Blue-hTLR7 cells were incubated at a density of 250,000∼450,000 cells/mL in a volume of 170 µL in a 96-well plate in Dulbecco's Modified Eagle's medium (DMEM) containing 4.5 g/L glucose, 50 U/mL penicillin, […], […], 2 mM L-glutamine, 10% (v/v) heat-inactivated fetal bovine serum with addition of 20 µL test compound in a serial dilution in the presence of final DMSO at 1% and 10 µL of 20uM R848 in above DMEM, perform incubation under 37 °C in a CO2 incubator for 20 hrs. Then 20 µL of the supernatant from each well was incubated with 180 µL Quanti-blue substrate solution at 37 °C for 2 hrs and the absorbance was read at 620∼655 nm using a spectrophotometer. The signalling pathway that TLR7 activation leads to downstream NF-κB activation has been widely accepted, and therefore similar reporter assay was modified for evaluating TLR7 antagonist.

Molecule | IC50 [nM]
3-fluoro-4-[(2R,6S)-2-methyl-6-[(5-piperazin-1-ylisoindolin-2-yl)methyl]morpholin-4-yl]pyrazolo[1,5-a]pyridine-7-carbonitrile [Example 7] | 42
5-[(2S,6R)-2-[[5-[3-(hydroxymethyl)piperazin-1-yl]isoindolin-2-yl]methyl]-6-methyl-morpholin-4-yl]quinoline-8-carbonitrile [Example 85] | 20
C[C@@H]1CN(c2ccc3c(c2)CN(C[C@H]2CN(c4ccc(C#N)c5ncccc45)C[C@@H](C)O2)C3)C[C@@H](C)N1 (mixture of isomers) [Example 57, Trans-5-[(2R,6S)-2-methyl-6-[[5-[3,5-dimethylpiperazin-1-yl]isoindolin-2-yl]methyl]morpholin-4-yl]quinoline-8-carbonitrile] | 125
C[C@@H]1CN(c2ccc(C#N)c3ncccc23)C[C@H](CNCc2ccccc2)O1 [ER-886509, reference compound] | 88
C[C@@H]1CN(c2ccc(C#N)n3nccc23)C[C@H](CN2Cc3ccc(N4CCNCC4)cc3C2)O1 [Example 4, 4-[(2R,6S)-2-methyl-6-[(5-piperazin-1-ylisoindolin-2-yl)methyl]morpholin-4-yl]pyrazolo[1,5-a]pyridine-7-carbonitrile] | 56
C[C@@H]1CN(c2ccc(C#N)n3nccc23)C[C@H](CN2Cc3ccc(C4CCNCC4)cc3C2)O1 [Example 8, 4-[(2R,6S)-2-methyl-6-[[5-(4-piperidyl)isoindolin-2-yl]methyl]morpholin-4-yl]pyrazolo[1,5-a]pyridine-7-carbonitrile] | 206
C[C@@H]1CN(c2ccc(C#N)n3nccc23)C[C@H](CN2Cc3ccc(C4CCNC4)cc3C2)O1 (stereo partly drawn) [Example 9, 4-[(2R,6S)-2-methyl-6-[(5-pyrrolidin-3-ylisoindolin-2-yl)methyl]morpholin-4-yl]pyrazolo[1,5-a]pyridine-7-carbonitrile] | 195
C[C@@H]1CN(c2ccc(C#N)n3nccc23)C[C@H](CN2CCc3cc(N4CCNCC4)ccc3C2)O1 [Example 10, 4-[(2R,6S)-2-methyl-6-[(6-piperazin-1-yl-3,4-dihydro-1H-isoquinolin-2-yl)methyl]morpholin-4-yl]pyrazolo[1,5-a]pyridine-7-carbonitrile] | 81
C[C@@H]1CN(c2ccc(C#N)n3nccc23)C[C@H](CN2CCc3ccc(N4CCNCC4)cc3C2)O1 [Example 11, 4-[(2R,6S)-2-methyl-6-[(7-piperazin-1-yl-3,4-dihydro-1H-isoquinolin-2-yl)methyl]morpholin-4-yl]pyrazolo[1,5-a]pyridine-7-carbonitrile] | 192
C[C@@H]1CN(c2ccc(C#N)c3nccnc23)C[C@H](CN2Cc3ccc(N4CCNCC4)cc3C2)O1 [Example 12, 8-[(2R,6S)-2-methyl-6-[(5-piperazin-1-ylisoindolin-2-yl)methyl]morpholin-4-yl]quinoxaline-5-carbonitrile] | < 3
C[C@@H]1CN(c2ccc(C#N)c3nccnc23)C[C@H](CN2CCc3cc(N4CCNCC4)ccc3C2)O1 [Example 13, 8-[(2R,6S)-2-methyl-6-[(6-piperazin-1-yl-3,4-dihydro-1H-isoquinolin-2-yl)methyl]morpholin-4-yl]quinoxaline-5-carbonitrile] | 3
C[C@@H]1CN(c2ccc(C#N)n3ncc(F)c23)C[C@H](CN2CCc3cc(N4CCNCC4)ccc3C2)O1 [Example 14, 3-fluoro-4-[(2R,6S)-2-methyl-6-[(6-piperazin-1-yl-3,4-dihydro-1H-isoquinolin-2-yl)methyl]morpholin-4-yl]pyrazolo[1,5-a]pyridine-7-carbonitrile] | 21
C[C@@H]1CN(c2ccc(C#N)n3nccc23)C[C@H](CN2CCc3cc(N4CCN(C)CC4)ccc3C2)O1 [Example 15, 4-[(2R,6S)-2-methyl-6-[[6-(4-methylpiperazin-1-yl)-3,4-dihydro-1H-isoquinolin-2-yl]methyl]morpholin-4-yl]pyrazolo[1,5-a]pyridine-7-carbonitrile] | 37
C[C@@H]1CN(c2ccc(C#N)n3nccc23)C[C@H](CNCc2ccc(N3CCNCC3)cc2)O1 [Example 16, 4-[(2R,6S)-2-methyl-6-[[(4-piperazin-1-ylphenyl)methylamino]methyl]morpholin-4-yl]pyrazolo[1,5-a]pyridine-7-carbonitrile] | 104
C[C@@H]1CN(c2ccc(C#N)n3nccc23)C[C@H](CN2Cc3ccc(N4CCN(C)CC4)cc3C2)O1 [Example 17, 4-[(2R,6S)-2-methyl-6-[[5-(4-methylpiperazin-1-yl)isoindolin-2-yl]methyl]morpholin-4-yl]pyrazolo[1,5-a]pyridine-7-carbonitrile] | 65
C[C@@H]1CN(c2ccc(C#N)n3nccc23)C[C@H](CN2Cc3cc(N4CCNCC4)cnc3C2)O1 [Example 18, 4-[(2R,6S)-2-methyl-6-[(3-piperazin-1-yl-5,7-dihydropyrrolo[3,4-b]pyridin-6-yl)methyl]morpholin-4-yl]pyrazolo[1,5-a]pyridine-7-carbonitrile] | 68
C[C@@H]1CN(c2ccc(C#N)c3ncccc23)C[C@H](CN2CCc3cc(N4CCNCC4)ccc3C2)O1 [Example 19, 5-[(2R,6S)-2-methyl-6-[(6-piperazin-1-yl-3,4-dihydro-1H-isoquinolin-2-yl)methyl]morpholin-4-yl]quinoline-8-carbonitrile] | 11
C[C@@H]1CN(c2ccc(C#N)c3ncccc23)C[C@H](CN2Cc3cc(N4CCNCC4)cnc3C2)O1 [Example 20, 5-[(2R,6S)-2-methyl-6-[(3-piperazin-1-yl-5,7-dihydropyrrolo[3,4-b]pyridin-6-yl)methyl]morpholin-4-yl]quinoline-8-carbonitrile] | 14
C[C@@H]1CN(c2ccc(C#N)c3ncccc23)C[C@H](CN2Cc3ccc(N4CCNCC4)cc3C2)O1 [Example 21, 5-[(2R,6S)-2-methyl-6-[(5-piperazin-1-ylisoindolin-2-yl)methyl]morpholin-4-yl]quinoline-8-carbonitrile] | 9
C[C@@H]1CN(c2ccc(C#N)c3ncsc23)C[C@H](CN2Cc3ccc(N4CCNCC4)cc3C2)O1 [Example 23, 7-[(2R,6S)-2-methyl-6-[(5-piperazin-1-ylisoindolin-2-yl)methyl]morpholin-4-yl]-1,3-benzothiazole-4-carbonitrile] | 6
C[C@@H]1CN(c2ccc(C#N)c3ncsc23)C[C@H](CN2CCc3cc(N4CCNCC4)ccc3C2)O1 [Example 24, 7-[(2R,6S)-2-methyl-6-[(6-piperazin-1-yl-3,4-dihydro-1H-isoquinolin-2-yl)methyl]morpholin-4-yl]-1,3-benzothiazole-4-carbonitrile] | 9
C[C@@H]1CN(c2ccc(C#N)c3ncsc23)C[C@H](CN2Cc3cc(N4CCNCC4)cnc3C2)O1 [Example 25, 7-[(2R,6S)-2-methyl-6-[(3-piperazin-1-yl-5,7-dihydropyrrolo[3,4-b]pyridin-6-yl)methyl]morpholin-4-yl]-1,3-benzothiazole-4-carbonitrile] | 11
